According to patent US10357514B2, “Treatment of cancer using anti-CD19 Chimeric Antigen Receptor” (The Trustees of the University of Pennsylvania, priority 2014, dated 2019):

What was measured:
[1] = Adverse event assessment in elderly volunteers, randomized placebo-controlled trial; details: for Treatment-related AE incidence: Blood cholesterol increased / Treatment-related AE incidence: Conjunctivitis / Treatment-related AE incidence: Diarrhea / Treatment-related AE incidence: Dry mouth / Treatment-related AE incidence: Dyspepsia / Treatment-related AE incidence: Erythema / Treatment-related AE incidence: Fatigue / Treatment-related AE incidence: Headache / Treatment-related AE incidence: Insomnia / Treatment-related AE incidence: Limb discomfort / Treatment-related AE incidence: Low density lipoprotein increased / Treatment-related AE incidence: Mouth ulceration / Treatment-related AE incidence: Mucosal inflammation / Treatment-related AE incidence: Neutropenia / Treatment-related AE incidence: Oral pain / Treatment-related AE incidence: Paresthesia oral / Treatment-related AE incidence: Pruritus / Treatment-related AE incidence: Stomatitis / Treatment-related AE incidence: Thrombocytopenia / Treatment-related AE incidence: Tongue ulceration / Treatment-related AE incidence: Urinary tract infection / Treatment-related AEs: Patients with AE(s) / Treatment-related AEs: Total AE(s): N = 53

Structure (SMILES): CO[C@H]1C[C@@H]2CC[C@@H](C)[C@@](O)(O2)C(=O)C(=O)N2CCCC[C@H]2C(=O)O[C@H]([C@H](C)C[C@@H]2CC[C@@H](OCCO)[C@H](OC)C2)CC(=O)[C@H](C)/C=C(\C)[C@@H](O)[C@@H](OC)C(=O)[C@H](C)C[C@H](C)/C=C/C=C/C=C/1C [RAD001, (1R,9S,12S,15R,16E,18R,19R,21R,23S,24E,26E,28E,30S,32S,35R)-1,18-dihydroxy-12-{(1R)-2-[(1S,3R,4R)-4-(2-hydroxyethoxy)-3-methoxycyclohexyl]-1-methylethyl}-19,30-dimethoxy-15,17,21,23,29,35-hexamethyl-11,36-dioxa-4-aza-tricyclo[30.3.1.04,9]hexatriaconta-16,24,26,28-tetraene-2,3,10,14,20-pentaone]
- Treatment-related AE incidence: Blood cholesterol increased ([1]; 0.5 mg daily): 2 (3.8%) n (%)
- Treatment-related AE incidence: Conjunctivitis ([1]; 0.5 mg daily): 0 n (%)
- Treatment-related AE incidence: Diarrhea ([1]; 0.5 mg daily): 1 (1.9%) n (%)
- Treatment-related AE incidence: Dry mouth ([1]; 0.5 mg daily): 0 n (%)
- Treatment-related AE incidence: Dyspepsia ([1]; 0.5 mg daily): 0 n (%)
- Treatment-related AE incidence: Erythema ([1]; 0.5 mg daily): 0 n (%)
- Treatment-related AE incidence: Fatigue ([1]; 0.5 mg daily): 0 n (%)
- Treatment-related AE incidence: Headache ([1]; 0.5 mg daily): 0 n (%)
- Treatment-related AE incidence: Insomnia ([1]; 0.5 mg daily): 1 (1.9%) n (%)
- Treatment-related AE incidence: Limb discomfort ([1]; 0.5 mg daily): 0 n (%)
- Treatment-related AE incidence: Low density lipoprotein increased ([1]; 0.5 mg daily): 2 (3.8%) n (%)
- Treatment-related AE incidence: Mouth ulceration ([1]; 0.5 mg daily): 6 (11.3%) n (%)
- Treatment-related AE incidence: Mucosal inflammation ([1]; 0.5 mg daily): 0 n (%)
- Treatment-related AE incidence: Neutropenia ([1]; 0.5 mg daily): 0 n (%)
- Treatment-related AE incidence: Oral pain ([1]; 0.5 mg daily): 0 n (%)
- Treatment-related AE incidence: Paresthesia oral ([1]; 0.5 mg daily): 2 (3.8%) n (%)
- Treatment-related AE incidence: Pruritus ([1]; 0.5 mg daily): 0 n (%)
- Treatment-related AE incidence: Stomatitis ([1]; 0.5 mg daily): 0 n (%)
- Treatment-related AE incidence: Thrombocytopenia ([1]; 0.5 mg daily): 0 n (%)
- Treatment-related AE incidence: Tongue ulceration ([1]; 0.5 mg daily): 3 (5.7%) n (%)
- Treatment-related AE incidence: Urinary tract infection ([1]; 0.5 mg daily): 0 n (%)
- Treatment-related AEs: Patients with AE(s) ([1]; 0.5 mg daily): 22 (41.5%) n (%)
- Treatment-related AEs: Total AE(s) ([1]; 0.5 mg daily): 35 n (%)
- Treatment-related AE incidence: Blood cholesterol increased ([1]; 5 mg weekly): 2 (3.8%) n (%)
- Treatment-related AE incidence: Conjunctivitis ([1]; 5 mg weekly): 2 (3.8%) n (%)
- Treatment-related AE incidence: Diarrhea ([1]; 5 mg weekly): 4 (7.5%) n (%)
- Treatment-related AE incidence: Dry mouth ([1]; 5 mg weekly): 0 n (%)
- Treatment-related AE incidence: Dyspepsia ([1]; 5 mg weekly): 3 (5.7%) n (%)
- Treatment-related AE incidence: Erythema ([1]; 5 mg weekly): 2 (3.8%) n (%)
- Treatment-related AE incidence: Fatigue ([1]; 5 mg weekly): 2 (3.8%) n (%)
- Treatment-related AE incidence: Headache ([1]; 5 mg weekly): 2 (3.8%) n (%)
- Treatment-related AE incidence: Insomnia ([1]; 5 mg weekly): 2 (3.8%) n (%)
- Treatment-related AE incidence: Limb discomfort ([1]; 5 mg weekly): 2 (3.8%) n (%)
- Treatment-related AE incidence: Low density lipoprotein increased ([1]; 5 mg weekly): 1 (1.9%) n (%)
- Treatment-related AE incidence: Mouth ulceration ([1]; 5 mg weekly): 2 (3.8%) n (%)
- Treatment-related AE incidence: Mucosal inflammation ([1]; 5 mg weekly): 0 n (%)
- Treatment-related AE incidence: Neutropenia ([1]; 5 mg weekly): 0 n (%)
- Treatment-related AE incidence: Oral pain ([1]; 5 mg weekly): 2 (3.8%) n (%)
- Treatment-related AE incidence: Paresthesia oral ([1]; 5 mg weekly): 0 n (%)
- Treatment-related AE incidence: Pruritus ([1]; 5 mg weekly): 2 (3.8%) n (%)
- Treatment-related AE incidence: Stomatitis ([1]; 5 mg weekly): 0 n (%)
- Treatment-related AE incidence: Thrombocytopenia ([1]; 5 mg weekly): 0 n (%)
- Treatment-related AE incidence: Tongue ulceration ([1]; 5 mg weekly): 1 (1.9%) n (%)
- Treatment-related AE incidence: Urinary tract infection ([1]; 5 mg weekly): 0 n (%)
- Treatment-related AEs: Patients with AE(s) ([1]; 5 mg weekly): 20 (37.7%) n (%)
- Treatment-related AEs: Total AE(s) ([1]; 5 mg weekly): 46 n (%)
- Treatment-related AE incidence: Blood cholesterol increased ([1]; 20 mg weekly): 2 (3.8%) n (%)
- Treatment-related AE incidence: Conjunctivitis ([1]; 20 mg weekly): 0 n (%)
- Treatment-related AE incidence: Diarrhea ([1]; 20 mg weekly): 1 (1.9%) n (%)
- Treatment-related AE incidence: Dry mouth ([1]; 20 mg weekly): 2 (3.8%) n (%)
- Treatment-related AE incidence: Dyspepsia ([1]; 20 mg weekly): 2 (3.8%) n (%)
- Treatment-related AE incidence: Erythema ([1]; 20 mg weekly): 0 n (%)
- Treatment-related AE incidence: Fatigue ([1]; 20 mg weekly): 4 (7.5%) n (%)
- Treatment-related AE incidence: Headache ([1]; 20 mg weekly): 9 (17.0%) n (%)
- Treatment-related AE incidence: Insomnia ([1]; 20 mg weekly): 1 (1.9%) n (%)
- Treatment-related AE incidence: Limb discomfort ([1]; 20 mg weekly): 0 n (%)
- Treatment-related AE incidence: Low density lipoprotein increased ([1]; 20 mg weekly): 2 (3.8%) n (%)
- Treatment-related AE incidence: Mouth ulceration ([1]; 20 mg weekly): 9 (17.0%) n (%)
- Treatment-related AE incidence: Mucosal inflammation ([1]; 20 mg weekly): 2 (3.8%) n (%)
- Treatment-related AE incidence: Neutropenia ([1]; 20 mg weekly): 3 (5.7%) n (%)
- Treatment-related AE incidence: Oral pain ([1]; 20 mg weekly): 1 (1.9%) n (%)
- Treatment-related AE incidence: Paresthesia oral ([1]; 20 mg weekly): 0 n (%)
- Treatment-related AE incidence: Pruritus ([1]; 20 mg weekly): 1 (1.9%) n (%)
- Treatment-related AE incidence: Stomatitis ([1]; 20 mg weekly): 2 (3.8%) n (%)
- Treatment-related AE incidence: Thrombocytopenia ([1]; 20 mg weekly): 2 (3.8%) n (%)
- Treatment-related AE incidence: Tongue ulceration ([1]; 20 mg weekly): 0 n (%)
- Treatment-related AE incidence: Urinary tract infection ([1]; 20 mg weekly): 2 (3.8%) n (%)
- Treatment-related AEs: Patients with AE(s) ([1]; 20 mg weekly): 27 (50.9%) n (%)
- Treatment-related AEs: Total AE(s) ([1]; 20 mg weekly): 109 n (%)
- tolerability ([1]; 6 weeks, particularly the 0.5 mg daily and 5 mg weekly dosing regimens): well tolerated
- deaths during the study ([1]; all cohorts): No deaths
- severe AEs assessed as related to RAD001 ([1]; mouth ulcers, subject treated with 20 mg weekly): one
- average RAD001 trough level (5 mg weekly, lower limit of quantification 0.3 ng/ml): below detection limits
- trough level of study dosing regimens lower than approved transplant and oncology regimens (dosing regimens used in the immunization study): 3-20 fold
